Laboratory results: patent US20050080142A1 (priority 2003, published 2005)

Key:
Type in all cases: cell-based
[1] = test system: Tetrahymena (Trophozoite)
[2] = test system: Acanthamoeba (Trophozoite)
[3] = test system: Acanthamoeba (Cyst)

| SMILES | Minimal Lethal Concentration, Tetrahymena (Trophozoite) [1] [µg/mL] | Minimal Lethal Concentration, Acanthamoeba (Trophozoite) [2] [µg/mL] | Minimal Lethal Concentration, Acanthamoeba (Cyst) [3] [µg/mL] |
| --- | --- | --- | --- |
| [H]/N=C(\N/C(=N/[H])NCCCCCCNC(=N)NC(=N)Nc1ccc(Cl)cc1)Nc1ccc(Cl)cc1 [Chlorhexidine] | 15 | 10 | 50 |
| N=C(N)N [Guanidine] | 400 | 500 | 500 |
| CCCCCCCCCCCCNC(=N)N [Dodecylguanidine] | 10 | 25 | 40 |
